Test results from paper PMC10033419, “Blocking NS3–NS4B interaction inhibits dengue virus in non-human primates” (Nature, 2023).
Values after ≈ are worked out from the molar mass of the structure shown. Where two headings read alike, the source gives them in different places.

Tested on: DENV-2 RL
Test: microbe, parasite or virus in culture
Assay type: cell-based
Settings: Dengue virus, DENV2, Vero

COc1cc(N[C@H](C(=O)c2c[nH]c3ccc(OC(F)(F)F)cc23)c2ccc(Cl)cc2OC)cc(S(C)(=O)=O)c1 [JNJ-1802] gave an EC50 (read-out: EC50 values [Well 2], A sample, passage 18) of 3.13 ng/mL (≈ 5.37 nM), an EC50 (read-out: EC50 values [Well 2], A sample, passage 20) of 12.5 ng/mL (≈ 21.4 nM) and an EC50 (read-out: EC50 values [Well 2], A sample, passage 21) of 12.5 ng/mL (≈ 21.4 nM). The EC50 (read-out: EC50 values [Well 2], A sample, passage 22) was 12.5 ng/mL (≈ 21.4 nM), the EC50 (read-out: EC50 values [Well 2], A sample, passage 23) was 12.5 ng/mL (≈ 21.4 nM) and the EC50 (read-out: EC50 values [Well 2], A sample, passage 24) was 25 ng/mL (≈ 42.9 nM). For the same compound, the EC50 (read-out: EC50 values [Well 2], A sample, passage 25) was 25 ng/mL (≈ 42.9 nM), the EC50 (read-out: EC50 values [Well 2], A sample, passage 26) was 50 ng/mL (≈ 85.8 nM) and the EC50 (read-out: EC50 values [Well 2], A sample, passage 27) was 100 ng/mL (≈ 172 nM). For the same compound, the EC50 (read-out: EC50 values [Well 2], A sample, passage 28) was 100 ng/mL (≈ 172 nM), the EC50 (read-out: EC50 values [Well 2], A sample, passage 29) was 100 ng/mL (≈ 172 nM) and the EC50 (read-out: EC50 values [Well 2], A sample, passage 30) was 100 ng/mL (≈ 172 nM). The EC50 (read-out: EC50 values [Well 2], A sample, passage 31) was 50 ng/mL (≈ 85.8 nM), the EC50 (read-out: EC50 values [Well 2], A sample, passage 32) was 50 ng/mL (≈ 85.8 nM) and the EC50 (read-out: EC50 values [Well 2], A sample, passage 33) was 100 ng/mL (≈ 172 nM). For the same compound, the EC50 (read-out: EC50 values [Well 2], A sample, passage 34) was 100 ng/mL (≈ 172 nM), the EC50 (read-out: EC50 values [Well 2], A sample, passage 35) was 100 ng/mL (≈ 172 nM) and the EC50 (read-out: EC50 values [Well 2], A sample, passage 36) was 100 ng/mL (≈ 172 nM). For the same compound, the EC50 (read-out: EC50 values [Well 2], A sample, passage 37) was 200 ng/mL (≈ 343 nM), the EC50 (read-out: EC50 values [Well 2], A sample, passage 38) was 200 ng/mL (≈ 343 nM) and the EC50 (read-out: EC50 values [Well 2], A sample, passage 39) was 500 ng/mL (≈ 858 nM). The EC50 (read-out: EC50 values [Well 2], A sample, passage 40) was 500 ng/mL (≈ 858 nM), the EC50 (read-out: EC50 values [Well 2], A sample, passage 41) was 500 ng/mL (≈ 858 nM) and the EC50 (read-out: EC50 values [Well 2], A sample, passage 42 (END)) was 500 ng/mL (≈ 858 nM). For the same compound, the EC50 (read-out: EC50 values [Well 2], B sample, passage 1) was 0.024 ng/mL (≈ 0.0412 nM), the EC50 (read-out: EC50 values [Well 2], B sample, passage 2) was 0.024 ng/mL (≈ 0.0412 nM) and the EC50 (read-out: EC50 values [Well 2], B sample, passage 3) was 0.024 ng/mL (≈ 0.0412 nM). The EC50 (read-out: EC50 values [Well 2], B sample, passage 4) was 0.024 ng/mL (≈ 0.0412 nM), the EC50 (read-out: EC50 values [Well 2], B sample, passage 5) was 0.024 ng/mL (≈ 0.0412 nM) and the EC50 (read-out: EC50 values [Well 2], B sample, passage 6) was 0.049 ng/mL (≈ 0.0841 nM). It also gave an EC50 (read-out: EC50 values [Well 2], B sample, passage 7) of 0.049 ng/mL (≈ 0.0841 nM), an EC50 (read-out: EC50 values [Well 2], B sample, passage 8) of 0.049 ng/mL (≈ 0.0841 nM) and an EC50 (read-out: EC50 values [Well 2], B sample, passage 9) of 0.049 ng/mL (≈ 0.0841 nM). It also gave an EC50 (read-out: EC50 values [Well 2], B sample, passage 10) of 0.049 ng/mL (≈ 0.0841 nM), an EC50 (read-out: EC50 values [Well 2], B sample, passage 13) of 0.195 ng/mL (≈ 0.334 nM) and an EC50 (read-out: EC50 values [Well 2], B sample, passage 14) of 0.049 ng/mL (≈ 0.0841 nM). The EC50 (read-out: EC50 values [Well 2], B sample, passage 15) was 0.049 ng/mL (≈ 0.0841 nM), the EC50 (read-out: EC50 values [Well 2], B sample, passage 19) was 0.195 ng/mL (≈ 0.334 nM) and the EC50 (read-out: EC50 values [Well 2], B sample, passage 20) was 0.195 ng/mL (≈ 0.334 nM). The EC50 (read-out: EC50 values [Well 2], B sample, passage 21) was 0.195 ng/mL (≈ 0.334 nM), the EC50 (read-out: EC50 values [Well 2], B sample, passage 22) was 0.195 ng/mL (≈ 0.334 nM) and the EC50 (read-out: EC50 values [Well 2], B sample, passage 23) was 0.391 ng/mL (≈ 0.671 nM). For the same compound, the EC50 (read-out: EC50 values [Well 2], B sample, passage 25) was 1.56 ng/mL (≈ 2.68 nM), the EC50 (read-out: EC50 values [Well 2], B sample, passage 26) was 3.13 ng/mL (≈ 5.37 nM) and the EC50 (read-out: EC50 values [Well 2], B sample, passage 27) was 3.13 ng/mL (≈ 5.37 nM). It also gave an EC50 (read-out: EC50 values [Well 2], B sample, passage 28) of 3.13 ng/mL (≈ 5.37 nM), an EC50 (read-out: EC50 values [Well 2], B sample, passage 29) of 12.5 ng/mL (≈ 21.4 nM) and an EC50 (read-out: EC50 values [Well 2], B sample, passage 31) of 15.6 ng/mL (≈ 26.8 nM). For the same compound, the EC50 (read-out: EC50 values [Well 2], B sample, passage 32) was 15.6 ng/mL (≈ 26.8 nM), the EC50 (read-out: EC50 values [Well 2], B sample, passage 33) was 31.3 ng/mL (≈ 53.7 nM) and the EC50 (read-out: EC50 values [Well 2], B sample, passage 34) was 31.3 ng/mL (≈ 53.7 nM). For the same compound, the EC50 (read-out: EC50 values [Well 2], B sample, passage 35) was 31.3 ng/mL (≈ 53.7 nM), the EC50 (read-out: EC50 values [Well 2], B sample, passage 36) was 31.3 ng/mL (≈ 53.7 nM) and the EC50 (read-out: EC50 values [Well 2], B sample, passage 37) was 31.3 ng/mL (≈ 53.7 nM). For the same compound, the EC50 (read-out: EC50 values [Well 2], B sample, passage 38) was 31.3 ng/mL (≈ 53.7 nM), the EC50 (read-out: EC50 values [Well 2], B sample, passage 39) was 62.5 ng/mL (≈ 107 nM) and the EC50 (read-out: EC50 values [Well 2], B sample, passage 40) was 125 ng/mL (≈ 214 nM). It also gave an EC50 (read-out: EC50 values [Well 2], B sample, passage 41) of 250 ng/mL (≈ 429 nM), an EC50 (read-out: EC50 values [Well 2], B sample, passage 42) of 250 ng/mL (≈ 429 nM) and an EC50 (read-out: EC50 values [Well 2], B sample, passage 43) of 250 ng/mL (≈ 429 nM). It also gave an EC50 (read-out: EC50 values [Well 2], B sample, passage 44) of 250 ng/mL (≈ 429 nM), an EC50 (read-out: EC50 values [Well 2], B sample, passage 45) of 250 ng/mL (≈ 429 nM) and an EC50 (read-out: EC50 values [Well 2], B sample, passage 46) of 250 ng/mL (≈ 429 nM). For the same compound, the EC50 (read-out: EC50 values [Well 2], B sample, passage 47) was 250 ng/mL (≈ 429 nM), the EC50 (read-out: EC50 values [Well 2], B sample, passage 48) was 500 ng/mL (≈ 858 nM) and the EC50 (read-out: EC50 values [Well 2], B sample, passage 49) was 500 ng/mL (≈ 858 nM). It also gave an EC50 (read-out: EC50 values [Well 2], B sample, passage 50 (END)) of 500 ng/mL (≈ 858 nM).
